From patent publication US4243408A, “Herbicidal N-triazolylmethyl-substituted alpha-haloacetanilide” (Chevron Research Company, priority 1978, dated 1981)

How the values were obtained:
Format in all cases: in vivo
[1] = system: Watergrass (Echinochloa); test: Pre-Emergent Test, herbicidal effectiveness; conditions: pre-emergence, 504 h, 33 micrograms per cm^2, 3 weeks, 0-to-100 scale, read-out: Herbicidal Effectiveness, % Control Pre, W
Experimental: (§1) An acetone solution of the test compound was prepared by mixing 750 mg of the compound, 220 mg of a nonionic surfactant and 25 ml of acetone. This solution was added to approximately 125 ml of water containing 156 mg of surfactant.
(§2) Seeds of the test vegetation were planted in a pot of soil and the test solution was sprayed uniformly onto the soil surface at a dose of 33 micrograms/cm^2. The pot was watered and placed in a greenhouse. […] At the end of this period, the herbicidal effectiveness of the compound was rated based on the physiological observations. A 0-to-100 scale was used, 0 representing no phytotoxicity, 100 representing complete kill.

[2] = system: Lambsquarter (Chenopodium album); test: Pre-Emergent Test, herbicidal effectiveness; conditions: pre-emergence, 504 h, 33 micrograms per cm^2, 3 weeks, 0-to-100 scale, read-out: Herbicidal Effectiveness, % Control Pre, L
Experimental: as §1, §2

[3] = system: Pigweed (Amaranthus retroflexus); test: Pre-Emergent Test, herbicidal effectiveness; conditions: pre-emergence, 504 h, 33 micrograms per cm^2, 3 weeks, 0-to-100 scale, read-out: Herbicidal Effectiveness, % Control Pre, P
Experimental: as §1, §2

[4] = system: Wild Oats (Avena fatua); test: Pre-Emergent Test, herbicidal effectiveness; conditions: pre-emergence, 504 h, 33 micrograms per cm^2, 3 weeks, 0-to-100 scale, read-out: Herbicidal Effectiveness, % Control Pre, O
Experimental: as §1, §2

[5] = system: Mustard (Brassica arvensis); test: Pre-Emergent Test, herbicidal effectiveness; conditions: pre-emergence, 504 h, 33 micrograms per cm^2, 3 weeks, 0-to-100 scale
Experimental: as §1, §2

[6] = system: Crabgrass (Digitaria sanguinalis); test: Pre-Emergent Test, herbicidal effectiveness; conditions: pre-emergence, 504 h, 33 micrograms per cm^2, 3 weeks, 0-to-100 scale, read-out: Herbicidal Effectiveness, % Control Pre, C
Experimental: as §1, §2

[7] = system: Watergrass (Echinochloa); test: Post-Emergent Test, herbicidal effectiveness; conditions: post-emergence, 504 h, 33 micrograms per cm^2, 3 weeks, 0-to-100 scale, read-out: Herbicidal Effectiveness, % Control Post, W
[8] = system: Lambsquarter (Chenopodium album); test: Post-Emergent Test, herbicidal effectiveness; conditions: post-emergence, 504 h, 33 micrograms per cm^2, 3 weeks, 0-to-100 scale, read-out: Herbicidal Effectiveness, % Control Post, L
[9] = system: Pigweed (Amaranthus retroflexus); test: Post-Emergent Test, herbicidal effectiveness; conditions: post-emergence, 504 h, 33 micrograms per cm^2, 3 weeks, 0-to-100 scale, read-out: Herbicidal Effectiveness, % Control Post, P
[10] = system: Wild Oats (Avena fatua); test: Post-Emergent Test, herbicidal effectiveness; conditions: post-emergence, 504 h, 33 micrograms per cm^2, 3 weeks, 0-to-100 scale, read-out: Herbicidal Effectiveness, % Control Post, O
[11] = system: Mustard (Brassica arvensis); test: Post-Emergent Test, herbicidal effectiveness; conditions: post-emergence, 504 h, 33 micrograms per cm^2, 3 weeks, 0-to-100 scale
[12] = system: Crabgrass (Digitaria sanguinalis); test: Post-Emergent Test, herbicidal effectiveness; conditions: post-emergence, 504 h, 33 micrograms per cm^2, 3 weeks, 0-to-100 scale, read-out: Herbicidal Effectiveness, % Control Post, C

| Compound | pest or weed control at 33 µg/cm2 [1] [%] | pest or weed control at 33 µg/cm2 [2] [%] | pest or weed control at 33 µg/cm2 [3] [%] | pest or weed control at 33 µg/cm2 [4] [%] | pest or weed control at 33 µg/cm2 [5] [%] | pest or weed control at 33 µg/cm2 [6] [%] | pest or weed control at 5000 µg/mL, 33 µg/cm2 [7] [%] | pest or weed control at 5000 µg/mL, 33 µg/cm2 [8] [%] | pest or weed control at 5000 µg/mL, 33 µg/cm2 [9] [%] | pest or weed control at 5000 µg/mL, 33 µg/cm2 [10] [%] | pest or weed control at 5000 µg/mL, 33 µg/cm2 [11] [%] | pest or weed control at 5000 µg/mL, 33 µg/cm2 [12] [%] |
| --- | --- | --- | --- | --- | --- | --- | --- | --- | --- | --- | --- | --- |
| CCc1cccc(C)c1N(Cc1nnc(C)o1)C(=O)CCl [Compound 4] | 100 | 10 | 65 | 93 | 10 | 100 | 60 | 0 | 0 | 50 | 0 | 20 |
| Cc1nnc(CN(C(=O)CCl)c2c(C)cccc2C)o1 [Compound 1B, N-(5-methyl-1,3,4-oxadiazol-2-ylmethyl)-2,6-dimethyl-alpha-chloroacetanilide] | 100 | 50 | 87 | 90 | 45 | 100 | 0 | 0 | 0 | 0 | 0 | 0 |
| CSc1nnc(CNc2c(C)cccc2C)n1C [Compound 14A] | 0 | 0 | 0 | 0 | 0 | 0 | 0 | 0 | 0 | 0 | 0 | 0 |
| Cc1nnc(CN(C(=O)CCl)c2c(C)cccc2C)[nH]1 [Compound 2B, N-(5-methyl-1,2,4-triazol-3-ylmethyl)-2,6-dimethyl-alpha-chloroacetanilide] | 100 | 98 | 88 | 100 | 75 | 100 | 75 | 50 | 32 | 30 | 25 | 20 |
| CCc1cccc(CC)c1NCc1nnc(SC)n1C [Compound 23A] | 0 | 0 | 0 | 0 | 0 | 0 | 0 | 0 | 0 | 0 | 0 | 0 |
| CCc1cccc(C)c1N(Cc1nnc(SC)n1C)C(=O)CCl [Compound 21B] | 98 | 0 | 0 | 0 | 0 | 0 | 0 | 0 | 0 | 0 | 0 | 0 |
| Cc1nnc(CNc2c(C)cccc2Cl)[nH]1 [Compound 22A] | 0 | 0 | 0 | 0 | 0 | 0 | 0 | 0 | 0 | 0 | 0 | 0 |
| Cc1cccc(C)c1N(Cc1nnc[nH]1)C(=O)CCl [Compound 9B] | 100 | 100 | 100 | 100 | 55 | 100 | 75 | 25 | 0 | 65 | 25 | 70 |
| Cc1cccc(C)c1NCc1nnc(S)[nH]1 [Compound 18A] | 0 | 0 | 0 | 0 | 0 | 0 | 0 | 0 | 0 | 0 | 0 | 0 |
| Cc1cccc(C)c1N(Cc1nnc(S)[nH]1)C(=O)CCl [Compound 18B] | 0 | 0 | 0 | 0 | 0 | 0 | 0 | 0 | 0 | 0 | 0 | 0 |
| CCc1nnc(CN(C(=O)CCl)c2c(C)cccc2CC)[nH]1 [Compound 15B] | 100 | 100 | 100 | 100 | 100 | 100 | 80 | 35 | 30 | 55 | 35 | 75 |
| CCc1cccc(CC)c1N(Cc1nnc[nH]1)C(=O)CCl [Compound 20B] | 100 | 97 | 100 | 97 | 95 | 95 | 55 | 25 | 35 | 0 | 30 | 30 |
| Cc1nnc(CCN(C(=O)CCl)c2c(C)cccc2C)[nH]1 [Compound 10B] | 95 | 0 | 0 | 15 | 0 | 80 | 55 | 25 | 0 | 25 | 35 | 40 |
